In the assay the target is T1, Pfu DNA Polymerase II (Pyrococcus furiosus, UniProt P81409+P81412).
T1 construct: made in house; host or cells: Escherichia coli JM109/pFU1001 (FERM BP-5579)
T1 sequence (P81409 1-1263): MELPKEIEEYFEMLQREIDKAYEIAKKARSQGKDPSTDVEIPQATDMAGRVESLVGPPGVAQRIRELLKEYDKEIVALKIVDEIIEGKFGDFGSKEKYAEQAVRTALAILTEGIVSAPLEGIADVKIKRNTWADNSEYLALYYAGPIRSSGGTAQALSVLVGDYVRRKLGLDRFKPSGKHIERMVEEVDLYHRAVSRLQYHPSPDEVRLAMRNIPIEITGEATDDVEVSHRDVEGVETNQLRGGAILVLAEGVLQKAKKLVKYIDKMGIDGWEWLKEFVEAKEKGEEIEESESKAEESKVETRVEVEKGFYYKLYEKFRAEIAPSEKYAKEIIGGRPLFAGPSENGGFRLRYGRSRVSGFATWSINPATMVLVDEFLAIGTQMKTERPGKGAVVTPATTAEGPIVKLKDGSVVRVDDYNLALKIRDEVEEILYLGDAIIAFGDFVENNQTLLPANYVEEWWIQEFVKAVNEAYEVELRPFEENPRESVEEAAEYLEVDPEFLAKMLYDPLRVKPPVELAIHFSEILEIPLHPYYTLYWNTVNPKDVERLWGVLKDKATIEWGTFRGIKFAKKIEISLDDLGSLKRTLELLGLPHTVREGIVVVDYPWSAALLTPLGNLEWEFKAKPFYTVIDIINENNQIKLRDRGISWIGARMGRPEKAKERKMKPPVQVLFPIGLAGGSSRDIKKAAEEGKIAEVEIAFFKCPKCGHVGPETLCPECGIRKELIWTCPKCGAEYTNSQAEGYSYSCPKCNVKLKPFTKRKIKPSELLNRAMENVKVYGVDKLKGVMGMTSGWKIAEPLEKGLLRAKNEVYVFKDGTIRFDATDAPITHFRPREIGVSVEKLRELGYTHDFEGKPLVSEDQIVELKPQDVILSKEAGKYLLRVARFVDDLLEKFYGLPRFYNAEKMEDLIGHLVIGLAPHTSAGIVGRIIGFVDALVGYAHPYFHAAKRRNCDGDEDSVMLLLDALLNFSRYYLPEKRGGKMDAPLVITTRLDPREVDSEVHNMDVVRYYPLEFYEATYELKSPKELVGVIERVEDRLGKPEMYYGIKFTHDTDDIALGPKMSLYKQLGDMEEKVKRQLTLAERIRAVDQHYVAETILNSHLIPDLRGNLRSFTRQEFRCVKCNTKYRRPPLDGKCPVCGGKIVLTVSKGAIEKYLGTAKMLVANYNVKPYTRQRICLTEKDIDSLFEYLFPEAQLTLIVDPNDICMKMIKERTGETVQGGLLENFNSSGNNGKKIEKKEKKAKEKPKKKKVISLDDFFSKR
T1 sequence (P81412 1-613): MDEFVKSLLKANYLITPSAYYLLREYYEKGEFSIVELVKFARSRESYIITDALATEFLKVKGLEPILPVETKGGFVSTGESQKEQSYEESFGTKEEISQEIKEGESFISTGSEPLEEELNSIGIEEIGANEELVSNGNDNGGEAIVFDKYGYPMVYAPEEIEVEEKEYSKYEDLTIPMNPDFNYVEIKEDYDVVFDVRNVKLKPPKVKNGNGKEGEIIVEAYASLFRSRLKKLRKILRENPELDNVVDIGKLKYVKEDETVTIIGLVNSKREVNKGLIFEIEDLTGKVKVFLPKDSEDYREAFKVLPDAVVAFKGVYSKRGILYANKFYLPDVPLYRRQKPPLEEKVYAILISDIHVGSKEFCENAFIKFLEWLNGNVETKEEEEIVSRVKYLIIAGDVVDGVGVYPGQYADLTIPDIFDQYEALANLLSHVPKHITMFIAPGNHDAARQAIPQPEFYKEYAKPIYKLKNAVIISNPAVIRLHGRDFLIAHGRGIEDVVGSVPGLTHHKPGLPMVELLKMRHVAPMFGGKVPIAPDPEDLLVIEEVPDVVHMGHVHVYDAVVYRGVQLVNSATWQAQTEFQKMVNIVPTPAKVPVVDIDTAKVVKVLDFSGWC
As to the kind of experiment: PCR with Pfu DNA Polymerase II in the presence of acidic substances (λDNA template). To be noted: 0.5 kb fragment; 100 pg λDNA, primers λ1/λ2, 25 cycles 98°C 5 s–66°C 15 s; amount added 1 μg. Format: biochemical. The procedure:
A reaction mixture comprising λDNA as a template, primers λ1 and λ3 as a primer pair, and Pfu DNA Polymerase II as DNA polymerase was prepared, and PCR was carried out. The composition of the reaction mixture is as follows.
10 mM Tris-hydrochloric acid (pH 9.2), 75 mM potassium chloride, 6 mM magnesium chloride, 0.4 mM each of dATP, dCTP, dGTP and dTTP, 0.01% BSA, 1.25 U of Pfu DNA Polymerase II, 500 pg of λDNA, and 5 pmol each of primers λ1 and λ3 (a final volume being 25 μl). […]
Using the sulfated-fucose-containing Polysaccharide-F obtained in Example 6 described above, dextran sulfate powder (manufactured by Onco), or sodium alginate (100 to 150 centipoises, manufactured by Wako Pure Chemicals), the effects of these acidic substances on the activity of Pfu DNA Polymerase II were examined. A reaction mixture comprising λDNA as a template, primers λ1 and λ2 as a primer pair, and Pfu DNA Polymerase II as DNA polymerase was prepared, and PCR was carried out. The composition of the reaction mixture is as follows.
10 mM Tris-hydrochloric acid, pH 9.2, 75 mM potassium chloride, 6 mM magnesium chloride, 0.4 mM each of dATP, dCTP, dGTP and dTTP, 0.01% BSA, 1.25 U of Pfu DNA Polymerase II, 100 pg of λDNA, and 5 pmol each of primers λ1 and λ2 (a final volume being 25 μl). Further, 10 ng of the sulfated-fucose-containing polysaccharide-F, 10 ng of dextran sulfate powder, or 1 μg of sodium alginate was respectively added to the above reaction mixture.
The reaction in 25 cycles was carried out for each of these reaction mixtures, wherein one cycle of reaction comprises a process consisting of 98° C., 5 seconds—66° C., 15 seconds. Thereafter, 5 μl of the resulting reaction mixture was subjected to electrophoresis on 1% agarose gel containing ethidium bromide in an amount of 0.00005%, whereby an amplified fragment was confirmed.
Further, studies were conducted on the effects of the sulfated-fucose-containing polysaccharide-F obtained in Example 6 described above, the sulfated-fucose-containing polysaccharide-U obtained in Example 7 described above, or sodium polyglutamate (manufactured by Sigma) as an acidic substance. A reaction mixture for PCR was prepared in the same manner as described above except for changing the amount of template λDNA to 500 pg and the primer pairs to primers λ1 and λ3. Five nanograms of the sulfated-fucose-containing polysaccharide-F, 5 ng, 10 ng, 20 ng or 30 ng each of the sulfated-fucose-containing polysaccharide-U, or 250 ng, 500 ng, 750 ng or 1000 ng each of sodium polyglutamate was respectively added to the above reaction mixture.
The reaction was carried out in 30 cycles, wherein one cycle of reaction comprises a process consisting of 98° C., 5 seconds—66° C., 15 seconds. After the termination of the reaction, 5 μl of the resulting reaction mixture was subjected to electrophoresis on 1% agarose gel containing ethidium bromide in an amount of 0.00005%, whereby an amplified fragment was confirmed.
Using the sulfated-fucose-containing polysaccharide-F obtained in Example 6 described above, the effects on the activity of Pfu DNA Polymerase II were examined. A reaction mixture comprising λDNA as a template, primers λ1 and λ2 as a primer pair, and Pfu DNA Polymerase II as DNA polymerase was prepared, and PCR was carried out. The composition of the reaction mixture is as follows.
10 mM Tris-hydrochloric acid, pH 9.2, 75 mM potassium chloride, 6 mM magnesium chloride, 0.4 mM each of dATP, dCTP, dGTP and dTTP, 0.01% BSA, 1.25 U of Pfu DNA Polymerase II, 500 pg of λDNA, and 5 pmol each of primers λ1 and λ2 (a final volume being 25 μl). Further, 10 ng of the sulfated-fucose-containing polysaccharide-F was respectively added to the above reaction mixture.
The reaction in 30 cycles was carried out for each of these reaction mixtures, wherein one cycle of reaction comprises a process consisting of 98° C., 5 seconds—66° C., 15 seconds. […]

Turning to sodium alginate, the “Amplification Results” value is “+ (Amplification being observed)”.

Values taken from patent publication US8367328B2, “Method for synthesizing DNA” (Takara Bio Inc., priority 1998, dated 2013).
